The values that follow come from ChEMBL document CHEMBL2046425, “Neamphamide B, new cyclic depsipeptide, as an anti-dormant mycobacterial substance from a Japanese marine sponge of Neamphius sp” (2012).

Converted amounts (≈) assume the structure as drawn.

Assay [1] has as its system Mycobacterium tuberculosis. Kind of assay: Antimicrobial activity against Mycobacterium bovis BCG under dormancy-inducing hypoxic condition for 14 days by MTT assay. The format is functional. Particulars: variant bovis BCG, 336 h. (In general: Tetrazolium assays rely on reduction of a dye to a coloured formazan, in cell work by metabolically active cells.)
In assay [2] the test system is Mycobacterium tuberculosis. The assay can be described thus: Antimicrobial activity against Mycobacterium bovis BCG under aerobic condition for 7 days by MTT assay. Particulars: variant bovis BCG, 168 h. The format is functional.

The term MIC denotes the least concentration at which growth counts as inhibited.

For `COC(c1ccc(O)cc1)C1NC(=O)[C@H](CCC(N)=O)N(C)C(=O)[C@H](CC(C)C)NC(=O)[C@@H](CCCNC(=N)N)NC(=O)[C@@H]([C@@H](C)O)NC(=O)[C@H](NC(=O)C(NC(=O)[C@H](O)[C@H](O)[C@H](CCCNC(=N)N)NC(=O)[C@@H](CC(N)=O)NC(=O)C(C)C(O)C(C)CC(C)C)C(C)C(C)C(N)=O)[C@@H](C)OC(=O)[C@@H]2CCCCN2C1=O` (some centres not stated) [NEAMPHAMIDE B], the MIC was found to be 12.5 µg/mL (≈ 7.94 µM) in assay [1] and 6.25 µg/mL (≈ 3.97 µM) in assay [2].
